Results reported in patent US20170157161A1, “Anti-Cancer Therapies” (Threshold Pharmaceuticals, Inc., priority 2015, published 2017).

Legend:
[1] = system: As-PC-1 human pancreatic cancer cells; assay: As-PC-1 human pancreatic tumor model in NMRI nu/nu mice; format: in vivo; details: glufosfamide i.v. and gemcitabine 1.25 mg/kg i.p., alone or in combination, once daily for 7 days
Experimental: (§1) A combination of glufosfamide and gemcitabine was administered daily for 7 days to female NMRI nu/nu mice that were carrying tumors derived from HS766-T or As-PC-1 human pancreatic cancer cells. Mice were administered doses of vehicle control (0.9% sodium chloride solution, i.v.), gemcitabine (i.p.), glufosfamide (i.v.) or gemcitabine/glufosfamide combinations once daily for 7 consecutive days. A dose of 1.25 mg/kg was used as the standard dose for gemcitabine throughout the study.

[2] = system: HS766-T human pancreatic cancer cells; assay: HS766-T human pancreatic tumor model in NMRI nu/nu mice; format: in vivo
Experimental: as §1

[3] = system: MiPaca2 human pancreatic cancer cells; assay: MiPaca2 human pancreatic tumor model in nude mice; format: in vivo
Experimental: A combination of glufosfamide and gemcitabine was administered to nude mice that were carrying tumors derived from type MiPaca2 human pancreatic cancer cells. Mice were administered doses of vehicle control, gemcitabine, glufosfamide, or gemcitabine/glufosfamide combinations as tabulated in Table 1 below (10 mice/group). Glufosfamide was administered i.v., daily for 14 days (Groups 1-4 and 7-12). Gemcitabine was administered at 300 mg/kg, i.p., once a week for three weeks (Groups 6 and 10-12). Gemcitabine was administered at 150 mg/kg, i.p., twice a week for three weeks (Groups 5 and 7-9).

[4] = system: pancreatic cancer cell lines; details: in vitro; cited from earlier work
[5] = system: advanced pancreatic cancer; details: patients with advanced pancreatic cancer; cited from earlier work

Structure (SMILES)	inhibitory effect on tumor growth [1]	inhibitory effect on tumor progression ([2]; gemcitabine alone 1.25 mg/kg i.p. once daily for 7 days)	deaths of the animals ([3]; Group 5: gemcitabine 150 mg/kg i.p. twice a week for three weeks)	reduction in tumor size ([3]; Group 6: gemcitabine 300 mg/kg i.p. once a week for three weeks)	onset of tumor growth ([2]; 10 mg/kg glufosfamide i.v. once daily for 7 days, compared with gemcitabine alone or vehicle control)	reduction in tumor size ([3]; Group 3: glufosfamide 30 mg/kg i.v. daily for 14 days)	reduction in tumor size ([3]; Group 4: glufosfamide 100 mg/kg i.v. daily for 14 days)	activity against pancreatic cancer cell lines [4]	activity in patients [5]
Nc1ccn([C@@H]2O[C@H](CO)[C@@H](O)C2(F)F)c(=O)n1 [gemcitabine, 2′-deoxy-2′,2′-difluoro-cytidine]	no apparent inhibitory effect on tumor growth	only a marginal inhibitory effect on tumor progression	rapid deaths of the animals	Approximately 50%					
O=P(NCCCl)(NCCCl)O[C@@H]1O[C@H](CO)[C@@H](O)[C@H](O)[C@H]1O [glufosfamide, β-D-glucosyl-ifosfamide mustard]	no apparent inhibitory effect on tumor growth				dramatic delay in the onset of tumor growth	modest reduction in tumor size	modest reduction in tumor size		
Nc1nc2[nH]cc(CCc3ccc(C(=O)N[C@@H](CCC(=O)O)C(=O)O)cc3)c2c(=O)[nH]1 [Pemetrexed]								active against pancreatic cancer cell lines in vitro	has shown activity in patients with advanced pancreatic cancer
